One assay has as its system L3.6sl. Description: Sensitivity of pancreatic adenocarcinoma cells to drug treatment (cell proliferation, apoptosis). It is filed as cell-based, human. The method, then:
(§1) Human pancreatic adenocarcinoma cell lines HPAC, SW1990, Mpanc-96, SU86.86, PL45, Panc10.05 Panc2.03 and Panc8.13 were obtained from ATCC; cell lines MiaPaCa2, Panc1, CFPAC-1, HPAFII, Capan-2, AsPC1, Hs766T and BxPC3 were a gift from Schering Plough; cell lines COLO357, L3.3, L3.6 pl and L3.6 sl were a gift from I. Fidler; cell lines Panc3.27, Panc4.21, Panc5.04, Panc2.13, Panc1.28 and Panc6.03 were a gift from E. Jaffee. BxPC3 and the Panc cell lines were grown in RPMI medium (Gibco) supplemented with 10% FBS, L-glutamine and penicillin/streptomycin; medium for the Panc cells was also supplemented with insulin-transferrin-selenium (Gibco). The CFPAC-1, Panc1, AsPC1, Hs766T, L3.6sl and L3.6pl were grown in DMEM without phenol red (CellGro), supplemented with 10% FBS. Derivation and culture of PDC cells was as described (Schreiber et al., Gastroenterology, 127:250-260, 2004).
(§2) The small chemical inhibitors were used at the following final concentrations: up to 250 μM for sulindac (Sigma), up to 300 μM for sulindac sulfone (Calbiochem or ICN), NS-398 up to 25 μM (Calbiochem), sodium salicylate up to 100 μM (Calbiochem). […] To test for drug sensitivity, the cells were plated in control medium or in medium containing the drug of interest for 2 to 5 days. The culture media was changed every 48 hrs. The images showing cell morphology were taken with a Nikon inverted microscope.
(§3) Cells were pulsed with 10 μM BrdU for two hours and then harvested and fixed. BrdU incorporation was detected with a fluorescein isothiocyanate conjugated anti-BrdU antibody (BD Biosciences) and total DNA was stained with 7-AAD (BD Biosciences). FACS analysis was performed according to the BD Biosciences BrdU flow kit manual. Cells in S-phase were defined as the BrdU-positive cell population with a DNA content between 2N and 4N. According to the manual, apoptotic cells were defined as a subpopulation of G0/G1 cells with DNA content lower than the diploid amount (<2N).

The test system of the next assay is BxPC3. The description is as above. It is filed as cell-based, human. The method, then: as §1, §2, §3
Another assay concerns Panc4.21. The description is as above. It is filed as cell-based, human. The method, then:
as §1, §2, §3

Assay [1] concerns Wnt signaling (Top-Flash reporter). Description: Fop/Top-Flash luciferase reporter assay. To be noted: CFPAC-1, BxPC3, L3.6sl, Panc4.21, 24 hrs after transfection, sulindac 250 μM, sulindac sulfone 150 μM, cyclopamine 10 μM, or co-transfection. It is filed as cell-based, human. As for the experimental part:
The cell lines were plated the day prior to transfection at a density of 8×10^4 cells/well in a 24-well plate. The luciferase reporter constructs used included: Top-Flash and Fop-Flash containing multimerized Tcf-Lef binding sites or nonfunctional sites, respectively; TK-Luc (Promega); and GliBS containing 8×Gli binding sites upstream of the TK minimal promoter (Sasaki et al., Development, 124:1313-1322, 1997). In different experiments, the reporter constructs were co-transfected with an expression vector containing a dominant-negative form of Lef1 or the endogenous Wnt inhibitor Icat. The dominant negative Lef1 (gift from S. Pleasure) was generated by cloning the 63 amino acid N-terminal deleted form of Lef1 into the pEF5 plasmid. This construct also contains an IRES-EGFP cassette. The cDNA coding for the Icat protein was cloned into pIRES2-EGFP (BD Biosciences Clontech). Transfections were performed using the Effectene transfection reagent […] according to the user's manual. A Renilla luciferase plasmid (Promega) was included to control for transfection efficiency. Transfected cells were cultured in medium containing serum. […] Cells were harvested 24 hrs after transfection, and luciferase activity was assayed using the Dual Luciferase kit (Promega), according to the user's manual.
For each Fop-luciferase or Top-luciferase experiment, a renilla luciferase construct was included. For each experimental condition (drug treatment, co-transfection or siRNA), triplicate Top- and Fop-luciferase samples were analyzed. To equilibrate the total vector-DNA (or siRNA) amount in all samples, equivalent amounts of an empty expression vector or unrelated siRNAs were transfected into control samples. The following equations were used to obtain the normalized luciferase values and the relative (fold) activation. The firefly luciferase (Fop and Top) values were divided by the renilla luciferase values to obtain the normalized luciferase values. The normalized Top values for each condition were divided by the Fop values of the same condition (e.g., untreated Top/untreated Fop; drug-treated Top/drug-treated Fop). […] To minimize the number of bars in each figure, only representative average Fop values are included in the graphs.
(A reporter such as luciferase makes a cellular process visible.)

Another assay relates to CFPAC-1. The assay can be described thus: Sensitivity of pancreatic adenocarcinoma cells to drug treatment (cell proliferation, apoptosis). To be noted: CFPAC-1 (CFPAC); vs untreated controls; FIG. 3B, 5. The format is cell-based, human. As for the experimental part:
(§4) The culture media was changed every 48 hrs.
as §3

Another assay relates to Panc2.03. Description: Sensitivity of pancreatic adenocarcinoma cells to drug treatment (cell proliferation). The format is cell-based, human. To be noted: reduction in cell proliferation. As for the experimental part:
as §4, §3

Another assay relates to Panc3.27. The assay is described as above. It is filed as cell-based, human. The following applies: reduction in cell proliferation. As for the experimental part: as §4, §3
For the next assay, the system named is L3.6pl. The assay is described as above. It is filed as cell-based, human. To be noted: reduction in cell proliferation. The method, then: as §4, §3
A further assay deals with Panc6.03. The description is as above. To be noted: reduction in cell proliferation. The format is cell-based, human. As for the experimental part: as §4, §3
A further assay relates to Tcf4. The assay can be described thus: Immunofluorescence of Tcf expression in pancreatic cancer cells. It is filed as cell-based, human. To be noted: cyclopamine for 24 hrs (FIG. 4C) or sulindac-treated.
Another assay deals with L3.6sl tumors. Description: Subcutaneous tumor treatment in nude mice. The format is in vivo, CD-1 nude mice. As for the experimental part: A total of 0.1 ml Hanks' balanced salt solution and matrigel (1:1) containing 2×10^6 cells was injected subcutaneously into CD-1 nude mice (Charles River Laboratories). Tumors were grown for 4 days to a minimum volume of 125 mm^3. Treatment was initiated simultaneously for all subjects. Mice were injected with vector alone (peanut oil: PBS 7:3 v/v) or with a sulindac solution (3 mg/mouse/day) daily for 5 days. Sulindac sulfone was administered orally (1.5 mg/mouse/day). At the end of the treatment period, tumors were excised from mice, weighed and photographed.
Individual or combined treatment was initiated after tumors were palpable.

Where [2] appears, read: reduction in cell proliferation.

“Also recorded” adds a separate entry of the source.

Here are results for one molecule from patent US20090012018A1, “Inhibition of pancretic cancer cell growth” (priority 2004, published 2009).

With `CC1=C(CC(=O)O)c2cc(F)ccc2/C1=C\c1ccc([S+](C)[O-])cc1` (stereo not shown) [sulindac], the induced apoptosis entry with L3.6sl (concentration dependent), with BxPC3 (concentration dependent) and in the assay on Panc4.21 (concentration dependent) was “two to four-fold” in each case. Moreover, the “Sulindac Sensitivity” value in the assay on L3.6sl (setting [2]), with BxPC3 (setting [2]), in the assay with Panc4.21 (setting [2]), with Panc2.03, in the assay on Panc3.27 and in the assay with L3.6pl was “Positive” each time. Also, in the assay on Panc6.03, the “Sulindac Sensitivity” value is recorded as “Positive”. Moreover, the cell growth result with L3.6sl (vs untreated controls, FIG. 3B) was “strongly inhibits growth”; with BxPC3 (vs untreated controls, FIG. 3B), “strongly inhibits growth”; with Panc4.21 (vs untreated controls, FIG. 3B), “strongly inhibits growth”. Moreover, the entries for the “Top-Flash reporter activity (Wnt signaling)” value in [1] and in assay [1] (listed as Sulindac) were “inhibit Wnt activity; also recorded: inhibited; also recorded: showed an inhibitory effect” and “suppressed Top-Flash reporter activation in all cell lines tested”, respectively. Moreover, in the assay with CFPAC-1, the “cell growth (proliferation, apoptosis)” value is “not affected; also recorded: only marginally affected”. Moreover, the Tcf4 expression result in the assay on Tcf4 was “reduced”. In addition, the “reduction in tumor volume compared to untreated samples” value in the assay on L3.6sl tumors (sulindac 3 mg/mouse/day injected daily for 5 days) turned out to be 80%. In addition, the tumor growth entry in the assay with L3.6sl tumors (treated for five days vs untreated controls, sulindac 3 mg/mouse/day injected, sulindac sulfone 1.5 mg/mouse/day orally) was “strongly reduced”.
